# Species on record: Rattus norvegicus
# Assay: DrugMatrix - Regimen: Daily Repeat
# Assay type: toxicity, organism-based, Sprague-Dawley
# Design: regimen Daily Repeat, gender Male, age 6-8 weeks
# Conditions: in vivo, po, route oral GAVAGE, vehicle .5 % CMC; for ABSOLUTE BASOPHIL / ABSOLUTE EOSINOPHIL / ABSOLUTE LYMPHOCYTE / ABSOLUTE MONOCYTE / ABSOLUTE SEGMENTED NEUTROPHIL / BASOPHIL / EOSINOPHIL / ERYTHROCYTE COUNT / HEMATOCRIT / HEMOGLOBIN / LEUKOCYTE COUNT / LYMPHOCYTE / MEAN CORPUSCULAR HEMOGLOBIN / MEAN CORPUSCULAR HEMOGLOBIN CONCENTRATION / MEAN CORPUSCULAR VOLUME / MONOCYTE / NEUTROPHIL / NUCLEATED RED BLOOD CELLS / PLATELET COUNT: tissue Blood; for ALANINE AMINOTRANSFERASE / ALBUMIN / ALKALINE PHOSPHATASE / ASPARTATE AMINOTRANSFERASE / BLOOD UREA NITROGEN / CARBON DIOXIDE / CHLORIDE / CHOLESTEROL / CREATINE PHOSPHOKINASE / CREATININE / GLUCOSE / LACTATE DEHYDROGENASE / LIPASE / PHOSPHORUS / POTASSIUM / SODIUM / TOTAL BILIRUBIN / TOTAL PROTEIN / URIC ACID: tissue Plasma
# [1] = 0 mg/kg, 72 h, dose level Control, time 3 day
# [2] = 0 mg/kg, 120 h, dose level Control, time 5 day
# [3] = 47 mg/kg, 72 h, dose level High, time 3 day
compound,measurement,setting,value
CN(C)C(=O)C(CCN1CCC(O)(c2ccc(Cl)cc2)CC1)(c1ccccc1)c1ccccc1 [LOPERAMIDE],ABSOLUTE BASOPHIL,[1],0 CELLS/uL
same,ABSOLUTE EOSINOPHIL,[1],0 CELLS/uL
same,ABSOLUTE LYMPHOCYTE,[1],12191.17 CELLS/uL
same,ABSOLUTE MONOCYTE,[1],183.17 CELLS/uL
same,ABSOLUTE SEGMENTED NEUTROPHIL,[1],1192.33 CELLS/uL
same,BASOPHIL,[1],0%
same,EOSINOPHIL,[1],0%
same,ERYTHROCYTE COUNT,[1],5.51 x10E6/uL
same,HEMATOCRIT,[1],35.45%
same,HEMOGLOBIN,[1],13.82 G/DL
same,LEUKOCYTE COUNT,[1],13.57 x10E3/uL
same,LYMPHOCYTE,[1],89.83%
same,MEAN CORPUSCULAR HEMOGLOBIN,[1],25.1 pg
same,MEAN CORPUSCULAR HEMOGLOBIN CONCENTRATION,[1],38.98 G/DL
same,MEAN CORPUSCULAR VOLUME,[1],64.42 fL
same,MONOCYTE,[1],1.33%
same,NEUTROPHIL,[1],8.83%
same,NUCLEATED RED BLOOD CELLS,[1],0 /100WBC
same,PLATELET COUNT,[1],1118.17 x10E3/uL
same,ALANINE AMINOTRANSFERASE,[1],55 u/L
same,ALBUMIN,[1],4.15 G/DL
same,ALKALINE PHOSPHATASE,[1],449.5 u/L
same,ASPARTATE AMINOTRANSFERASE,[1],112.83 u/L
same,BLOOD UREA NITROGEN,[1],17.33 mg/dL
same,CARBON DIOXIDE,[1],29.5 mmol/L
same,CHLORIDE,[1],101 MEQ/L
same,CHOLESTEROL,[1],70 mg/dL
same,CREATINE PHOSPHOKINASE,[1],1325.83 u/L
same,CREATININE,[1],0.18 mg/dL
same,GLUCOSE,[1],171.5 mg/dL
same,LACTATE DEHYDROGENASE,[1],386 u/L
same,LIPASE,[1],10 u/L
same,PHOSPHORUS,[1],11.57 mg/dL
same,POTASSIUM,[1],6.21 MEQ/L
same,SODIUM,[1],141.65 MEQ/L
same,TOTAL BILIRUBIN,[1],0.15 mg/dL
same,TOTAL PROTEIN,[1],5.75 G/DL
same,URIC ACID,[1],1.28 mg/dL
same,ABSOLUTE BASOPHIL,[2],0 CELLS/uL
same,ABSOLUTE EOSINOPHIL,[2],138.17 CELLS/uL
same,ABSOLUTE LYMPHOCYTE,[2],13283.17 CELLS/uL
same,ABSOLUTE MONOCYTE,[2],303.83 CELLS/uL
same,ABSOLUTE SEGMENTED NEUTROPHIL,[2],1308.17 CELLS/uL
same,BASOPHIL,[2],0%
same,EOSINOPHIL,[2],1%
same,ERYTHROCYTE COUNT,[2],5.32 x10E6/uL
same,HEMATOCRIT,[2],33.8%
same,HEMOGLOBIN,[2],13.63 G/DL
same,LEUKOCYTE COUNT,[2],15.03 x10E3/uL
same,LYMPHOCYTE,[2],88.33%
same,MEAN CORPUSCULAR HEMOGLOBIN,[2],25.68 pg
same,MEAN CORPUSCULAR HEMOGLOBIN CONCENTRATION,[2],40.35 G/DL
same,MEAN CORPUSCULAR VOLUME,[2],63.67 fL
same,MONOCYTE,[2],1.83%
same,NEUTROPHIL,[2],8.83%
same,NUCLEATED RED BLOOD CELLS,[2],0 /100WBC
same,PLATELET COUNT,[2],1097.5 x10E3/uL
same,ALANINE AMINOTRANSFERASE,[2],54.5 u/L
same,ALBUMIN,[2],4.27 G/DL
same,ALKALINE PHOSPHATASE,[2],337 u/L
same,ASPARTATE AMINOTRANSFERASE,[2],94.67 u/L
same,BLOOD UREA NITROGEN,[2],17 mg/dL
same,CARBON DIOXIDE,[2],28.33 mmol/L
same,CHLORIDE,[2],101.5 MEQ/L
same,CHOLESTEROL,[2],71.33 mg/dL
same,CREATINE PHOSPHOKINASE,[2],628.17 u/L
same,CREATININE,[2],0.19 mg/dL
same,GLUCOSE,[2],177.83 mg/dL
same,LACTATE DEHYDROGENASE,[2],500.5 u/L
same,LIPASE,[2],9.5 u/L
same,PHOSPHORUS,[2],12.3 mg/dL
same,POTASSIUM,[2],5.63 MEQ/L
same,SODIUM,[2],143.03 MEQ/L
same,TOTAL BILIRUBIN,[2],0.2 mg/dL
same,TOTAL PROTEIN,[2],6.02 G/DL
same,URIC ACID,[2],1.5 mg/dL
same,ABSOLUTE BASOPHIL,[3],0 CELLS/uL
same,ABSOLUTE EOSINOPHIL,[3],41.67 CELLS/uL
same,ABSOLUTE LYMPHOCYTE,[3],10763.67 CELLS/uL
same,ABSOLUTE MONOCYTE,[3],116.33 CELLS/uL
same,ABSOLUTE SEGMENTED NEUTROPHIL,[3],1178.33 CELLS/uL
same,BASOPHIL,[3],0%
same,EOSINOPHIL,[3],0.33%
same,ERYTHROCYTE COUNT,[3],5.35 x10E6/uL
same,HEMATOCRIT,[3],35.5%
same,HEMOGLOBIN,[3],13.67 G/DL
same,LEUKOCYTE COUNT,[3],12.1 x10E3/uL
same,LYMPHOCYTE,[3],89%
same,MEAN CORPUSCULAR HEMOGLOBIN,[3],25.6 pg
same,MEAN CORPUSCULAR HEMOGLOBIN CONCENTRATION,[3],38.47 G/DL
same,MEAN CORPUSCULAR VOLUME,[3],66.47 fL
same,MONOCYTE,[3],1%
same,NEUTROPHIL,[3],9.67%
same,NUCLEATED RED BLOOD CELLS,[3],0 /100WBC
same,PLATELET COUNT,[3],1353 x10E3/uL
same,ALANINE AMINOTRANSFERASE,[3],75 u/L
same,ALBUMIN,[3],3.9 G/DL
same,ALKALINE PHOSPHATASE,[3],286.67 u/L
same,ASPARTATE AMINOTRANSFERASE,[3],88 u/L
same,BLOOD UREA NITROGEN,[3],15 mg/dL
same,CARBON DIOXIDE,[3],30.67 mmol/L
same,CHLORIDE,[3],102 MEQ/L
same,CHOLESTEROL,[3],68 mg/dL
same,CREATINE PHOSPHOKINASE,[3],336.67 u/L
same,CREATININE,[3],0.15 mg/dL
same,GLUCOSE,[3],144.33 mg/dL
same,LACTATE DEHYDROGENASE,[3],285.33 u/L
same,LIPASE,[3],9.33 u/L
same,PHOSPHORUS,[3],11.33 mg/dL
same,POTASSIUM,[3],6.22 MEQ/L
same,SODIUM,[3],144.77 MEQ/L
same,TOTAL BILIRUBIN,[3],0.1 mg/dL
same,TOTAL PROTEIN,[3],5.5 G/DL
same,URIC ACID,[3],1.43 mg/dL

# From ChEMBL document CHEMBL3885881, “DrugMatrix”
